In series [1] the target is Co-type nitrile hydratase from Pseudonocardia thermophile JCM 3095 (PtNHase) (Pseudonocardia thermophila, UniProt Q7SID2+Q7SID3). The settings on record: previously reported value (ref. 21); cited from earlier work.
Series [2] concerns the target Fe-type nitrile hydratase from Comamonas testosteroni Ni1 (CtNHase) (Comamonas testosteroni, UniProt J9PBS0+J9PBS1). The settings on record: previously reported value (ref. 34); cited from earlier work.
Substrate in series [3]: N#Cc1ccccc1
As to the kind of experiment: purified protein, by the assay type. The settings on record: other: benzonitrile hydrolysis, solution, pH 7.6, 25° C.

Broadly, the Km is the substrate concentration at which the rate is half of its maximum. The term kcat denotes the maximal rate divided by the concentration of active sites. Take `N#Cc1ccccc1` [benzonitrile]: in series [1], the Km was 19 µM and the catalytic constant (kcat) was 120 s⁻¹.

Turning to `N#CCCCCC(=O)O` [cyanovaleric acid], in series [2], the Km is 3200 µM.

B1: Co-type nitrile hydratase from Pseudonocardia thermophile JCM 3095 (PtNHase) (Pseudonocardia thermophila) (protein)
chain 1: MTENILRKSDEEIQKEITARVKALESMLIEQGILTTSMIDRMAEIYENEVGPHLGAKVVVKAWTDPEFKKRLLADGTEACKELGIGGLQGEDMMWVENTDEVHHVVVCTLCSCYPWPVLGLPPNWFKEPQYRSRVVREPRQLLKEEFGFEVPPSKEIKVWDSSSEMRFVVLPQRPAGTDGWSEEELATLVTRESMIGVEPAKAV
chain 2: MNGVYDVGGTDGLGPINRPADEPVFRAEWEKVAFAMFPATFRAGFMGLDEFRFGIEQMNPAEYLESPYYWHWIRTYIHHGVRTGKIDLEELERRTQYYRENPDAPLPEHEQKPELIEFVNQAVYGGLPASREVDRPPKFKEGDVVRFSTASPKGHARRARYVRGKTGTVVKHHGAYIYPDTAGNGLGECPEHLYTVRFTAQELWGPEGDPNSSVYYDCWEPYIELVDTKAAAA
For the molecule B1, in series [3], the Km amounted to 18 µM and the kcat came out at 123 s⁻¹.

These data come from US20110039314A1, “Composition for Catalytic Amide Production and Uses Thereof” (LOYOLA UNIVERSITY OF CHICAGO, priority 2009, published 2011).
